Consider 6 compounds from paper PMC7306133 (Diabetes, 2020).

Where a SMILES comes first, the peptide text is derived from it. Where no end group is shown, it is not given here.

The subject of experiment [1] is CD4+ T cells in peripheral blood of subjects with T1D. The experiment in a line: Ex vivo tetramer analysis of T-cell frequency. The class given is cell-based, human. The following applies: DR0401 tetramers, ex vivo enrichment.
Experiment [2] relates to HIP-specific T-cell clones. The experiment in a line: Proliferation of HIP-specific T-cell clones in response to human islet fractions. The class given is cell-based. The note with it: label = specificity of the clone; compared with the unpulsed control condition.
In experiment [3] the target is HLA-DRB1*04:01 (DR0401) protein (Homo sapiens, UniProt P01903+P01911, A100K/A169T/F76Y/I96L/K127E/L162R/M171V/N62H/P40V/Q125Y/R42H/S133A/S149N/S66Y/V115G/V209L/W38E). The experiment in a line: DR0401 peptide binding competition assay.

On to `CC[C@H](C)[C@H](N)C(=O)N[C@@H](CS)C(=O)N[C@@H](CO)C(=O)N[C@@H](CC(C)C)C(=O)N[C@@H](Cc1ccc(O)cc1)C(=O)N[C@@H](CCC(N)=O)C(=O)N[C@@H](CC(C)C)C(=O)N[C@@H](CCC(=O)O)C(=O)N[C@@H](Cc1ccccc1)C(=O)N[C@H](C(=O)N[C@@H](CC(N)=O)C(=O)N[C@@H](CCC(N)=O)C(=O)N[C@@H](Cc1c[nH]cn1)C(=O)N[C@@H](CC(C)C)C(=O)N[C@@H](CS)C(=O)NCC(=O)O)C(C)C` [HIP-4.4] (H-ICSLYQLEFVNQHLCG-OH; N-terminus and C-terminus assumed), for which the “Average frequency of HIP-reactive T cells” value in experiment [1] is 8 cells per million CD4+ T cells. The “Proliferation of the HIP-reactive clone in response to human islets (in words)” value in experiment [2] is “not above the unpulsed control condition”. On to HLVEALYLEELVARSE [HIP-4.2], for which the IC50 – broadly, the concentration that inhibits the measured activity by half – in experiment [3] is 440 nM.

CSLYQLENSVPHFSDE [HIP-4.39] gave an IC50 in experiment [3] of 240 nM. On the same count and under the same terms, the same measure for VCGERGFFEELVARSE [HIP-4.1]: 2800 nM; for SLQKRGIVEELVARSE [HIP-4.18]: 1800 nM; for QPLALEGSALSSQHQA [HIP-4.40]: 2400 nM.
